In article PMC2838427 (British journal of haematology, 2009):
Where “and” joins values, the source holds several entries; their conditions need not be identical. Equal entries are not always repeated.

Assays:
[1] = test system: ABCB1 gene expression in PBMCs; conditions: human, in vivo
[2] = test system: ABCB1 gene expression in tumor biopsy samples; conditions: in vivo
[3] = test system: histone H3 acetylation in peripheral blood mononuclear cells (PBMCs); conditions: human, in vivo
fetal hemoglobin (HbF) = assay: Blood fetal hemoglobin; type: in vivo, patients
[4] = patients with chronic myelogenous leukemia; ref Picard, et al 2007; cited from earlier work

**Q.** Which “median fold increase in ABCB1 mRNA expression” value [1] does the source give for `C/C=C1\NC(=O)[C@H]2CSSCC/C=C/[C@H](CC(=O)N[C@H](C(C)C)C(=O)N2)OC(=O)[C@H](C(C)C)NC1=O` [romidepsin, (E)-(1S,4S,10S,21R)-7-[(Z)-Ethylidene]-4,21-diisopropyl-2-oxa-12,13-dithi a-5,8,20,23-tetraazabicyclo[8,7,6]-tricos-16-ene-3,6,9,22-pentanone] here?
**A.** Its value is 2.74 and 1.78.

**Q.** And the “patients having ABCB1 levels 2-fold or higher than baseline” value [1]?
**A.** Its value is 56% and 37%.

**Q.** And the “samples again showing less than 2-fold ABCB1 increase at 24 h” value [1]?
**A.** Its value is 71%.

**Q.** What about the “fold increase in ABCB1 in a biopsy sample, one patient” value [2] of the same molecule?
**A.** The value was “greater than 30”.

**Q.** And the “fold increase in ABCB1 in biopsy samples, all other values” [2]?
**A.** Its value is “below 8”.

**Q.** And the “increase in median ABCB1 level on-study to off study” value [2]?
**A.** Its value is 50%.

**Q.** And the “pre/post sample sets with greater than 50% increase in ABCB1 expression level” value [2]?
**A.** Its value is “Fourteen”.

**Q.** What about the “pre/post samples with two-fold or greater increase in ABCB1 level” value [2] of the same molecule?
**A.** Its value is “eight”.

**Q.** And the “patients with at least a 2-fold increase in global histone acetylation” value [3]?
**A.** The value was 73%.

**Q.** And the “patients with fold increase x < 2 in histone acetylation, number (%)” value [3]?
**A.** The value was 21 (57%) and 11 (61%).

**Q.** What about the “median time to peak induction of HbF” value (fetal hemoglobin (HbF); 61 patients) of the same molecule?
**A.** Its value is 99 days.

**Q.** And the “range of time to peak induction of HbF” value (fetal hemoglobin (HbF); 61 patients)?
**A.** Its value is 27 to 295 days.

**Q.** What about the “HbF fold change, range” value (fetal hemoglobin (HbF); CR/PR) of the same molecule?
**A.** Its value is 1.69–23.00.

**Q.** What about the “patients with fold increase 2 ≤ x < 4 in hemoglobin F, number (%)” value (fetal hemoglobin (HbF); Final vs baseline, n=49) of the same molecule?
**A.** The value was 9 (18%).

**Q.** And the “patients with fold increase x < 2 in hemoglobin F, number (%)” value (fetal hemoglobin (HbF); Final vs baseline, n=49)?
**A.** Its value is 20 (41%).

**Q.** And the “patients with fold increase x ≥ 4 in hemoglobin F, number (%)” value (fetal hemoglobin (HbF); Final vs baseline, n=49)?
**A.** The value was 20 (41 %).

**Q.** And the “patients with fold increase 2 ≤ x < 4 in hemoglobin F, number (%)” value (fetal hemoglobin (HbF); Peak vs baseline, n=52)?
**A.** Its value is 7 (13%).

**Q.** And the “patients with fold increase x < 2 in hemoglobin F, number (%)” value (fetal hemoglobin (HbF); Peak vs baseline, n=52)?
**A.** Its value is 14 (27%).

**Q.** What about the “patients with fold increase x ≥ 4 in hemoglobin F, number (%)” value (fetal hemoglobin (HbF); Peak vs baseline, n=52) of the same molecule?
**A.** The value was 31 (60%).

**Q.** And the “HbF fold change, range” value (fetal hemoglobin (HbF); SD/PD)?
**A.** The value was 0.95–11.50.

**Q.** What about the “patients with > 4-fold rise in HbF levels” value (fetal hemoglobin (HbF); peak vs baseline) of the same molecule?
**A.** Its value is 60%.

**Q.** And the “patients with two-fold or greater induction of fetal hemoglobin” value (fetal hemoglobin (HbF); peak vs baseline, zero baselines reassigned 0.2%)?
**A.** The value was 73%.

**Q.** Which “trough plasma threshold associated with response” value [4] does the source give for `Cc1ccc(NC(=O)c2ccc(CN3CCN(C)CC3)cc2)cc1Nc1nccc(-c2cccnc2)n1` [imatinib] here?
**A.** The value was 1002 ng/mL.
